Results taken from patent EP0711275B1, “(THIO)CARBIMIDINIC ACID DERIVATIVES AND MEDICAMENTS CONTAINING THE SAME” (BOEHRINGER MANNHEIM GMBH, priority 1993, dated 1995).
≈ marks a conversion by molar mass, not a printed value. Like-named read-outs stand apart in the source and are kept apart here.

What was measured:
[1] = biological target: T1, reversen Transkriptase RT (Human immunodeficiency virus type 1 group M subtype B, UniProt P04585); assay: Inhibition of RT, non-radioactive microtitre plate test; type: biochemical; conditions: inhibition of RT activity; incorporated nucleotides determined photometrically; read-out: IC50-Werte RT (converted)
T1 construct: Hemmung der reversen Transkriptase RT
Source text: (§1) Die antivirale Wirksamkeit einiger ausgewählter Substanzen wurde sowohl in vivo als auch in vitro (Hemmung der reversen Transkriptase RT) untersucht. a) MT2/MTT-Testsystem (in vivo) MT2-Zellen werden mit HIV-1 (Isolat HTLV III B) infiziert. Nach 7 Tagen Inkubation erfolgt der MTT-Test, der die Vitalität der Zellen bestimmt. Die Vitalität der Zellen korreliert mit dem Ausmaß der Virusproduktion. In der folgenden Tabelle werden IC50-Werte angegeben, d. h. diejenige Konzentration der Substanzen, die eine 50%-ige Inhibierung bewirken. b) Hemmung der RT (in vitro) In einem nicht radioaktiven Mikrotiterplattentest wird das Ausmaß der Inhibierung der Aktivität der RT bestimmt. Die Menge an eingebauten Nukleotiden in die zu synthetisierende DNA wird photometrisch bestimmt.

[2] = test system: HIV-1 (Isolat HTLV III B); assay: MT2/MTT test system (antiviral activity in HIV-1-infected MT2 cells); type: cell-based; conditions: read-out: IC50-Werte MT2
Source text: as §1

[3] = Human immunodeficiency virus 1, 168 h, MT2-Zellen infected with HIV-1 (Isolat HTLV III B), 7 days incubation, MTT test of cell vitality

| SMILES | IC50 [1] | IC50 [2, 3] | IC50 ([2]; Human immunodeficiency virus 1, MT2, 168 h) |
| --- | --- | --- | --- |
| CC(C)CC(C)SC(=N)NC(=S)Nc1ccc(Cl)cc1 (stereo not shown) [Beispiel 1, N-(4-Chlorphenylaminothiocarbonyl)thiocarbamidinsäure 2-(4-methylpentyl)ester] | 1.82 µM | 0.6 µg/mL (≈ 1.82 µM) | – |
| CCCCSC(=N)NC(=S)Nc1ccc(Cl)cc1 [Beispiel 2j, N-(4-Chlorphenylaminothiocarbonyl)thiocarbamidinsäure-butylester] | 2.52 µM | < 3 µg/mL | – |
| N=C(NC(=S)Nc1ccc(Cl)cc1)Sc1ccccc1 [Beispiel 2n, N-(4-Chlorphenylaminothiocarbonyl)thiocarbamidinsäure-phenylester] | 2.8 µM | – | – |
| CC(C)CC(C)SC(=N)NC(=S)Nc1cccc(F)c1 (stereo not shown) [Beispiel 2b, N-(3-Fluorphenylaminothiocarbonyl)thiocarbamidinsäure 2-(4-methylpentyl)ester] | 3.19 µM | 3.3 µg/mL (≈ 10.5 µM) | – |
| N=C(NC(=S)Nc1ccc(Cl)cc1)SCc1cccc(Cl)c1 [Beispiel 2g, N-(4-Chlorphenylaminothiocarbonyl)thiocarbamidinsäure-3-chlorbenzylester] | 0.891 µM | – | < 3 µg/mL |
| N=C(NC(=S)Nc1ccc(Cl)cc1)SC1CCCCC1 [Beispiel 2f, N-(4-Chlorphenylaminothiocarbonyl)thiocarbamidinsäure-cyclohexylester] | 0.314 µM | < 3 µg/mL | – |
| N=C(NC(=S)Nc1ccc(Cl)cc1)SCc1ccccc1 [Beispiel 2e, N-(4-Chlorphenylaminothiocarbonyl)thiocarbamidinsäure-benzylester] | 7.29 µM | < 3 µg/mL | – |
